{
  "source": "patent US9238797B2",
  "about": "“Method for production of pluripotent stem cell” (TAKARA BIO INC., priority 2008, dated 2016)",
  "assay_type_in_all_cases": "cell-based",
  "key": {"[1]": {"test_system": "human adult skin fibroblasts", "test": "iPS cell colony induction, differences between donors, Retronectin or polybrene (Example 13)", "conditions": "virus 10-fold dilution, 25th day of culture, N=2", "procedure": "Regarding gene transfer with a retrovirus vector, a pluripotent stem cell was induced using Retronectin or polybrene, targeting four kinds of human adult skin fibroblasts as in Example 12, followed by comparison.\nAccording to the same manner as that of Example 1-(1), immobilization of Retronectin on a culture plate was carried out, provided that a non-treatment 12-well culture plate (manufactured by Becton, Dickinson and Company) was used, and each 1 mL of a Retronectin solution was added to each well.\nAccording to the same manner as that of Example 7-(2), gene transfer was carried out (day 0 of culturing), provided that a 12-well plate for culturing a cell (manufactured by Corning) was used in gene transfer with polybrene. A virus solution was added to each well by each 1 mL by diluting 10-fold a solution obtained by mixing equal amounts of three kinds of vectors, with 10F-DMEM.\nOn the sixth day of culture, according to the same manner as that of Example 5-(4), the gene-introduced cell was seeded on a feeder cell, and culturing was continued.\nAccording to the same manner as that of Example 10-(5), culturing on the feeder cell was carried out until the 25th day of culture.\nIn addition, the number in the Table indicates an average value of N=2."}, "human skin fibroblast [2]": {"test_system": "human skin fibroblast", "test": "AcGFP1 positive cell rate by flow cytometer (Example 19)", "procedure": "(§1) As an index showing an existence rate of a cell in which each retrovirus vector together with a gene encoding a nuclear reprogramming factor (iPS cell inducing factor) was inserted, gene transfer of an AcGFP1 gene was carried out, and a pluripotent stem cell (iPS cell) induction efficiency and an AcGFP1 positive cell rate, in a gene transfer method with Retronectin (Retronectin method) and a gene transfer method with polybrene (polybrene method) were compared. In addition, regarding partial condition, quantitation of a copy number of a retrovirus vector inserted into a genome was carried out, and comparison of a copy number and a pluripotent stem cell (iPS cell) induction efficiency was carried out.\nAccording to the same manner as that of Example 1-(1), immobilization of Retronectin on a culture plate was carried out, provided that, for a plate coated with Retronectin, a non-treatment 12-well plate was used, and each 1 mL of a Retronectin solution (25 μg/mL) was added to each well.\n(§2) The virus solutions prepared in Preparation Example 2 and Preparation Example 3 were mixed at an equal amount in a combination of Table 24, the solution in which the virus solution was diluted 10-fold and 100-fold with 10F-DMEM was prepared regarding the condition A, and the solution in which the virus solution was diluted 10-fold was prepared regarding the condition B, and these were used in gene transfer. Gene transfer was carried out according to the same manner as that of Example 7-(2), provided that 1 mL of PSB was used for washing a plate with PBS in the Retronectin method, the cell number used in infection by the Retronectin method and the polybrene method was 4×10^4 cells/well, and a retrovirus vector solution was 1 mL/well.\n(§3) According to the same manner as that of Example 10-(4), seeding of the gene-introduced cell on a feeder cell was carried out, provided that an AcGFP1 positive cell rate was measured with a flow cytometer using remaining cells which were not used in seeding on the feeder cell."}, "[3]": {"test_system": "human adult skin fibroblast", "test": "iPS cell colony induction, standing infecting method, Retronectin versus Native fibronectin (Example 21)", "conditions": "virus 10-fold dilution, standing infection, 27th day of culture, N=3", "procedure": "Using a plate coated with Retronectin and a plate coated with Native fibronectin, gene transfer was carried out, and pluripotent stem cell induction was carried out. In addition, as the plate, a plate made in the following Example 21-(1), and a marketed product of a 35 mm petri dish coated with Retronectin in advance (T110A manufactured by TAKARA BIO INC.), and a marketed product of a 35 mm petri dish coated with Native fibronectin in advance (354457 manufactured by FALCON) were used.\nAccording to the same manner as that of Example 1-(1), immobilization of Retronectin on a culture plate was carried out, provided that, as a culturing container, a non-treatment 35 mm petri dish (manufactured by IWAKI CO., LTD.) was used. In addition, petri dishes coated with Retronectin and Native fibronectin in advance which are marketed products (hereinafter, also described as Retronectin dish and fibronectin dish) were not subjected to these immobilization operations.\nThe virus solutions prepared in Preparation Example 2 were mixed at an equal amount in a combination of Table 27, and diluted 10-fold with 10F-DMEM, each 2 mL was added to the Retronectin-immobilized culturing petri dish prepared in Example 21-(1), or the petri dish coated with Retronectin or Native fibronectin in advance, and this was allowed to stand in a CO2 incubator at 32° C. for 4 to 6 hours. […]"}, "human skin fibroblast [4]": {"test_system": "human skin fibroblast", "test": "iPS cell colony number, Retronectin method versus polybrene method (Example 19)", "conditions": "for iPS cell colony number: 28th day of culture", "procedure": "as §1, §2, §3\nAccording to the same manner as that of Example 10-(5), culturing on the feeder cell was carried out, provided that cells were recovered from a part of wells under the condition A on the 11th day of culture, genome extraction was carried out, and the inserted number of the retrovirus vector was quantitated."}, "[5]": {"test_system": "mouse embryonic fibroblast; MEF", "test": "Efficiency of introducing a retrovirus vector into MEF, AcGFP1 positive cell rate (Example 23)", "conditions": "four days after gene transfer", "procedure": "An efficiency of introducing a gene into MEF using a retrovirus vector was compared between a Retronectin method and a polybrene method.\nAccording to the same manner as that of Example 1-(1), immobilization of Retronectin on a culture plate was carried out, provided that, as a plate on which Retronectin is coated, a non-treatment 12-well plate (manufactured by Becton, Dickinson and Company) was used, and each 1 mL of a Retronectin solution (25 μg/mL) was added to each well.\nAccording to the same manner as that of Example 19-(2) and (3), gene transfer was carried out. The retrovirus vector was prepared according to the same manner as that of Preparation Example 3, and DON-eco-AcGFP1 made using pE-Eco plasmid (manufactured by TAKARA BIO INC.) in place of pE-Ampho plasmid was used. Each of the prepared retrovirus vector as a stock solution, and solutions obtained by diluting the stock solution by each 10-fold to 100000-fold with 10F-DMEM was used for infection. In addition, as a target cell, MEF (manufactured by Millipore) was used.\nOn the next day of gene transfer, the medium was exchanged with 10F-DMEM.\nFour days after a gene transfer operation, the cells were recovered, and an AcGFP1 positive cell rate was measured with a flow cytometer."}, "[6]": {"conditions": "vector combination Condition A, virus 10-fold dilution"}, "[7]": {"conditions": "vector combination Condition A, virus 100-fold dilution"}, "[8]": {"conditions": "vector combination Condition B, virus 10-fold dilution"}},
  "data": [
    {"substance": "Retronectin: fragment of fibronectin having a heparin-II binding region (registered trademark, CH-296, TAKARA BIO INC.)", "values": [
      {"measurement": "Number of iPS cell colonies", "setting": "[1]; Cell A", "value": 81.0},
      {"measurement": "Number of iPS cell colonies", "setting": "[1]; Cell B", "value": 6.5},
      {"measurement": "Number of iPS cell colonies", "setting": "[1]; Cell C", "value": 114.0},
      {"measurement": "Number of iPS cell colonies", "setting": "[1]; Cell D", "value": 44.5},
      {"measurement": "AcGFP1 positive rate", "setting": "human skin fibroblast [2]; [6]", "value": 82.8, "unit": "%"},
      {"measurement": "AcGFP1 positive rate", "setting": "human skin fibroblast [2]; [7]", "value": 94.1, "unit": "%"},
      {"measurement": "AcGFP1 positive rate", "setting": "human skin fibroblast [2]; [8]", "value": 88, "unit": "%"},
      {"measurement": "Number of iPS cell colonies", "setting": "[3]; Condition A: DON5-am-OCT4-IR-SOX2, DON5-am-KLF4", "value": 52.0},
      {"measurement": "Number of iPS cell colonies", "setting": "[3]; Condition B: DON5-am-OCT4-IR-SOX2, DON5-am-LIN28-IR-NANOG, DON5-am-KLF4", "value": 97.3},
      {"measurement": "iPS cell colony number higher in the Retronectin method", "setting": "human skin fibroblast [4]; Condition A, Retronectin method 100-fold dilution versus polybrene method 10-fold dilution", "value": 9, "unit": "fold"},
      {"measurement": "difference in the iPS cell colony number, Retronectin method versus polybrene method", "setting": "human skin fibroblast [4]; Condition A, retrovirus 10-fold dilution", "value": "≥ 3", "unit": "fold"},
      {"measurement": "iPS cell colony number higher in the Retronectin method", "setting": "human skin fibroblast [4]; Condition B, versus polybrene method", "value": 2, "unit": "fold"},
      {"measurement": "iPS cell colony number", "setting": "human skin fibroblast [4]; [6]", "value": 10.0},
      {"measurement": "iPS cell colony number", "setting": "human skin fibroblast [4]; [7]", "value": 27.0},
      {"measurement": "iPS cell colony number", "setting": "human skin fibroblast [4]; [8]", "value": 11.5},
      {"measurement": "Positive cell rate", "setting": "[5]; Virus concentration 0.00001", "value": 5.9, "unit": "%"},
      {"measurement": "Positive cell rate", "setting": "[5]; Virus concentration 0.0001", "value": 15.3, "unit": "%"},
      {"measurement": "Positive cell rate", "setting": "[5]; Virus concentration 0.001", "value": 41.3, "unit": "%"},
      {"measurement": "Positive cell rate", "setting": "[5]; Virus concentration 0.01", "value": 64.6, "unit": "%"},
      {"measurement": "Positive cell rate", "setting": "[5]; Virus concentration 0.1", "value": 80.3, "unit": "%"},
      {"measurement": "Positive cell rate", "setting": "[5]; Virus concentration 1.0", "value": 84.1, "unit": "%"}
    ]}
  ]
}
